The record followed here is patent publication US20050250822A1, “Substituted benzanilide compound and noxious organism controlling agent” (priority 2002, published 2005).

Like-named read-outs stand apart in the source and are kept apart here.

Assay [1] concerns Common cutworms (Spodoptera litura) with second instar larvae. The experiment in a line: Insecticidal test against common cutworm (leaf dip). The assay is classed as in vivo. The following applies: foliar, 144 h, read-out: insecticidal rate (rate of dead insects). The procedure:
Insecticidal Test Against Common Cutworm
(§1) A 10% emulsifiable concentrate (depending on the compounds, 25% wettable powder was applied for the test) of the compound of the present invention was diluted with water containing a spreading agent to prepare a chemical solution with a concentration of 100 ppm. To the chemical solution was dipped leaves of Chinese olive for about 10 seconds, and after air-drying, they were placed in a laboratory dish, then, 10 Common cutworms (Spodoptera litura) with second instar larvae per the dish were released therein, and the dish was covered with a lid having holes and contained at a thermostat chamber at 25° C. A number of dead insect(s) after 6 days was counted and a rate of dead insects was calculated by the following calculation formula. Incidentally, the test was carried out with two districts. Rate of dead insects (%)=(Number of dead insects/Number of released insects)×100

In assay [2] the test system is diamondback moths (Plutella xylostella) with second instar larvae. The experiment in a line: Insecticidal test against diamondback moth (leaf dip). In kind it is in vivo. The following applies: foliar, 144 h, read-out: insecticidal rate (rate of dead insects). The procedure: Insecticidal Test Against Diamondback Moth
as §1, with “diamondback moths (Plutella xylostella)” for “Common cutworms (Spodoptera litura)”, “in” for “by”, “same manner as in Test Example 1.” for “following calculation formula.”, “districts.” for “districts. Rate of dead insects (%)=(Number of dead insects/Number of released insects)×100”

The mark [3] stands for this setting: chemical solution 100 ppm, leaf dip, 25° C., dead insects counted after 6 days.

On to `Cc1cc(C2(C(F)(F)F)C=NC(c3ccccc3)C2)ccc1NC(=O)c1cccc(I)c1C(=O)NC(C)C` (stereo not drawn) [7-04, 3-Iodo-N^2-isopropyl-N^1-[2-methyl-4-(2-phenyl-4-trifluoromethyl-3,4-dihydro-2H-pyrrol-4-yl)phenyl]phthalic diamide], for which the pest or weed control at 100 ppm in assay [1] (setting [3]) and in assay [2] (setting [3]) was at least 80% each time.
As for `CC1=NC(c2ccc(Cl)cc2)=CC(c2ccc(NC(=O)c3cccc(I)c3C(=O)NC(C)C)c(C)c2)(C(F)(F)F)N1` (stereo not drawn) [8-01, N^1-[4-[6-(4-chlorophenyl)-2-methyl-4-trifluoromethyl-3,4-dihydropyrimidin-4-yl]-2-methylphenyl]-3-iodo-N^2-isopropylphthalic diamide], the pest or weed control at 100 ppm in assay [1] (setting [3]) and in assay [2] (setting [3]) was at least 80% throughout.
Consider `Cc1cc(C2(C(F)(F)F)CC2(C#N)C#N)ccc1NC(=O)c1cccc(I)c1C(=O)NC(C)C` (stereo not drawn) [9-001, N^1-[4-(2,2-dicyano-1-trifluoromethylcyclopropyl)-2-methylphenyl]-3-iodo-N^2-isopropylphthalic diamide], for which the pest or weed control at 100 ppm in assay [1] (setting [3]) and in assay [2] (setting [3]) was at least 80% throughout.
Consider `CSCC(C)NC(=O)c1c(I)cccc1C(=O)Nc1ccc(C2(c3ccc(Cl)cc3)CC2(F)F)cc1C` (stereo not drawn) [9-026, N^1-[4-(2,2-difluoro-1-(4-chlorophenyl)cyclopropyl)-2-methylphenyl]-3-iodo-N^2-(1-methyl-2-methylthioethyl)phthalic diamide], for which the pest or weed control at 100 ppm in assay [1] (setting [3]) and in assay [2] (setting [3]) was at least 80% each time.
Consider `CSCC(C)NC(=O)c1c(I)cccc1C(=O)Nc1ccc(C2(c3ccc(Cl)cc3)CC2(Cl)Cl)cc1C` (stereo not drawn) [9-041, N^1-[4-(2,2-dichloro-1-(4-chlorophenyl)cyclopropyl)-2-methylphenyl]-3-iodo-N^2-(1-methyl-2-methylthioethyl)phthalic diamide], for which the pest or weed control at 100 ppm in assay [1] and in assay [2] was at least 80% each time.
For the molecule `Cc1cc(C2(c3ccc(Cl)cc3)CC2(F)F)ccc1NC(=O)c1cccc(I)c1C(=O)NC(C)CS(C)(=O)=O` (stereo not drawn) [9-065, N^1-[4-(2,2-difluoro-1-(4-chlorophenyl)cyclopropyl)-2-methylphenyl]-3-iodo-N^2-(1-methyl-2-methylsulfonylethyl)phthalic diamide], the pest or weed control at 100 ppm in assay [1] (setting [3]) and in assay [2] (setting [3]) was at least 80% in each case.
